In patent US7932253B2, “Immunomodulating oxopyrrazolocinnolines as CD80 inhibitors” (MediGene AG, priority 2004, dated 2011):

Key:
[1] = target: T1, Biotinylated human CD80 (hCD80-BT) (Homo sapiens, UniProt P33681); assay: BIAcore biomolecular interaction assay; format: binding; settings: hCD80-BT immobilised on streptavidin-coated sensor chip; compound 1000 nM-0.05 nM
T1 construct: biotin (biotinylation)
T1 sequence (P33681 35-242 limits assumed): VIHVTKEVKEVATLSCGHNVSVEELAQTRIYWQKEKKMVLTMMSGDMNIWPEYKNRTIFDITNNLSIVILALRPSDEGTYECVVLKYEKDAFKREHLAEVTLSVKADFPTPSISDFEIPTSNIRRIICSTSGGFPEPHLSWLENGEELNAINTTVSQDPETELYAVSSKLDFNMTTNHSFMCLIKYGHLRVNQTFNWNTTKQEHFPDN
Text: Biotinylated human CD80 (hCD80-BT) is a recombinant soluble form of a membrane bound receptor molecule (CD80) which binds to CD28 to initiate T cell activation. The interaction between CD80 and CD28 has been extensively investigated (Collins et al, 2002). Biotinlyated human HLA-A2-tax is the recombinant soluble form of a membrane bound receptor molecule used as a control protein, and is not expected to interact with the compound.
The BIAcore S51™ system was used for screening the compounds of Examples 1-4 above. A series S sensor chip CM5 was docked onto the BIAcore S51™. Streptavidin was coupled to the carboxymethyl surface using standard amine coupling. The chip surface was activated with 0.2M EDC/0.05M NHS, followed by binding of streptavidin (0.25 mg/ml in 10 mM sodium acetate pH 5.0) and saturation of unoccupied sites with […].
The BIAcore S51 sensor chip has two separate sensor spots for immobilisation of proteins. hCD80-BT was immobilised on the streptavidin-coated surface of one sensor spot until a response of approximately 3000 RU was observed. A protein to control for non-specific binding of the compound was immobilised on a second sensor spot. […]
BIAcore S51™ was run at a flow rate of 30 μl/min using running buffer. […] Data were recorded automatically and were analysed using BIAcore S51 Evaluation software.

CD80-CD28 interaction = target: T2, CD80-CD28 interaction (Homo sapiens, UniProt P33681); assay: Homogeneous time resolved fluorescence (TR-Fret) assay, cell free; format: biochemical; settings: inhibition of the CD80-CD28 interaction; 4 hours at room temperature
T2 construct: mouse Fab fragment (fusion partner)
T2 sequence (P33681 35-242 limits assumed): T1 sequence (P33681 35-242 limits assumed)
Experimental: The compound was tested in a cell free homogenous time resolved fluorescence (HT-Fret) assay to determine their activity as an inhibitor of the CD80-CD28 interaction.
In the assay, europium and allophycocyanin (APC) are associated with CD28 and CD80 indirectly (through antibody linkers) to form a complex, which brings the europium and APC into close proximity to generate a signal. The complex comprises the following six proteins: fluorescent label 1, linker antibody 1, CD28 fusion protein, CD80 fusion protein, linker antibody 2, and fluorescent label 2. The table below describes these reagents in greater detail.
On formation of the complex, europium and APC are brought into proximity and a signal is generated.
Non-specific interaction was measured by substituting a mouse Fab fragment (C215) for the CD80 mouse Fab fragment fusion protein (1.9 μg/ml). The assay was carried out in black 384 well plates in a final volume of 30 μl. Assay buffer: 50 mM Tris-HCl, 150 mM NaCl pH7.8, containing 0.1% BSA (w/v) added just prior to use.
Compounds were added to the above reagents in a concentration series ranging between 100 μM-1.7 nM. The reaction was incubated for 4 hours at room temperature. Dual measurements were made using a Wallac Victor 1420 Multilabel Counter. […] Counts were automatically corrected for fluorescence crossover, quenching and background.

## O=C(N[C@H]1CN2CCC1CC2)c1ccc(-n2[nH]c3c(nnc4c(F)ccc(F)c43)c2=O)cc1 [The compound, (R)—N-(1-Aza-bicyclo[2.2.2]oct-3-yl)-4-(6,9-difluoro-3-oxo-1,3-dihydro-pyrazolo[4,3-c]cinnolin-2-yl)-benzamide]
[1]
  Kd: 0.35 nM
CD80-CD28 interaction
  EC50: 0.82 nM
